Assay results reported in US8686049B2, “Agent for increasing testosterone level” (Tohoku University, priority 2006, dated 2014).

Experiments:
[1] = Testis vitamin K analog concentration by HPLC-reduction fluorescence, Example 1 (35-day diet); type: in vivo, rat; details: rats, diet with MK-4 75 mg/kg for 35 days, vs low K and control dietary groups (FIG. 1)
Description: Experimental animals: ordinary rats (Wistar/Std, eight-week-old males)
(§1) In the breeding method, preparatory breeding was performed in which the rats have free access to feed and water for three to five days. A commercially-available solid feed (product name: MR Labostock by Nosan Corp.) was used. Each experimental diet group includes four rats that were colony-bred in a wire mesh cage. After the preparatory breeding, the rats were fed respective experimental diets and bred for 35 days with free access to feed and water. Blood samples were taken, and testes were removed.
One gram of tissue was precisely measured and placed in a stoppered brown centrifuge tube. Two milliliters of 66% IPA solution was added. The sample was then homogenized in a Polytron homogenizer (Biotron) on ice. […]
The vitamin K homologues in the prepared HPLC sample are non-fluorescent, oxidized types. […] Quantities of the vitamin K groups were determined by an HPLC-reduction fluorescence method that measures fluorescence intensity of the sample. The vitamin K groups were determined as a relative value of MK-3 that was the internal standard.
In the method, the HPLC-reduction fluorescence method is used in which the non-fluorescent, oxidized type vitamin K groups become fluorescent, reduced types through use of the platinum catalyst column. The fluorescence intensity of the vitamin K groups was measured. […]

[2] = Testis vitamin K concentration, Example 2; type: in vivo, rat; details: rats, 75 mg/kg in diet, 35 days (FIG. 7), P<0.05
Description: (§2) As in Example 1, the experimental animals and breeding conditions were ordinary rats (Wistar/Std, eight-week-old males) bred in a breeding room set to a temperature of 23° C., humidity of 50±5%, and a 12-hour light/dark cycle in which lights were turned on at 8 AM and turned off at 8 PM.
(§3) The breeding period was 35 days. Blood was drawn from tail veins every week at 18 o'clock. Measurements of weight, diet intake, testis vitamin K content, testis testosterone concentration, and plasma testosterone concentration were taken. The analysis method was similar to that in Example 1.
Data on testis vitamin K concentration and testosterone concentration was analyzed using the Tukey method. Analysis of changes over time in the blood testosterone concentrations was performed by two-way layout analysis of variance (repeated). In all cases, significant differences was P<0.05.

P450scc = P450scc protein level in testis by Western blot, Example 1; type: in vivo; details: rat testis, diet with MK-4 75 mg/kg for 35 days, vs control dietary group (FIG. 3)
Description: as §1
Testes of each of the above-described group that had been stored at −80° C. after dissection were used. Anti-P450scc antibodies were purchased from Chemicon International, Inc.
While being iced in 1 ml of 1× Phosphate buffered saline (PBS, including 10 μl of 100 mM phenyl methane sulfonyl fluoride [PMSF]), 0.2 g of testes were homogenized in the Polytron homogenizer (Biotron). […] A portion of the tissue homogenate was used to determine the quantity of protein. […]
One milliliter of ECLTM Western blotting detection reagent (Amersham Corp.) was poured over the entire membrane. […] Luminescent signals were picked up by an Las-1000 Imaging System (Fujifilm Corp.) and quantity was determined using ImageGauge (trademark) image processing software.
Protein concentration in the tissue homogenates was measured by the Bradford method. […]

[3] = Weight and diet intake of rats on experimental diets, Example 2; type: in vivo, rat; details: 75 mg/kg in diet, 35 days; for differences in weight: vs control dietary group (FIG. 5); for differences in diet intake: vs control dietary group (FIG. 6)
Description: as §2, §3

[4] = person per day; cited from earlier work

Row | Compound | MK-4 concentration in the testes [1] | testis MK-4 concentration [2] | P450scc protein level (P450scc) | differences in weight [3] | differences in diet intake [3] | tolerable upper intake level [4] [mg]
1 | CC(C)=CCC/C(C)=C/CC/C(C)=C/CC/C(C)=C/CC1=C(C)C(=O)c2ccccc2C1=O [MK-4, menaquinone-4] | significantly high | significantly increased | significantly higher | could not be observed | could not be observed | –
2 | CC1=C(C/C=C(\C)CCC[C@H](C)CCC[C@H](C)CCCC(C)C)C(=O)c2ccccc2C1=O [vitamin K1, phylloquinone] | – | significantly increased | – | could not be observed | could not be observed | –
3 | Vitamin K | – | – | – | – | – | 30
